For this assay, the target named is T1, ΔIBB-importin-α (importin-α1, KPNA2) (Mus musculus, UniProt P52293).
T1 construct: modified pET-30a with TEV-cleavable His6/S-tag, tag cleaved; recombinant
The assay is described as follows: direct ITC. The assay is classed as binding. An excerpt:
direct ITC on ΔIBB-importin-α (importin-α1, KPNA2)

With `NCCCC[C@H](NC(=O)c1ccc(-c2cccnc2)cc1)C(N)=O` [compound 14], the Kd was > 10 mM.
As for `NCCCC[C@@H](NCc1ccc(-c2cccnc2)cc1)C(N)=O` [compound 15], the figure is 3.8 ± 0.4 mM; as for `NCCCC[C@H](NCc1cccc(-c2cccnc2)c1)C(N)=O` [compound 16], 1.3 ± 0.1 mM.
The molecule `NCCCC[C@H](NCc1ccc(-c2cccnc2)s1)C(N)=O` [compound 17] registered a Kd of 0.9 ± 0.1 mM.
The result for `NCCCC[C@H](NCc1ccc(-c2cccnc2)cc1)C(N)=O` [compound 11] reads 4 ± 0.5 mM.

Source of the values: PMC4515083, “Selective Targeting of the TPX2 Site of Importin-α Using Fragment-Based Ligand Design” (Chemmedchem, 2015).
